# Assay results published in a melting point compilation (Tetko et al.; mined from patent text by program, amines drawn as free bases though some values may be those of a salt).
row,melting point [°C],SMILES
1,132 to 133,Cc1c(NCCCNCC(O)COc2ccccc2)n(C)c(=O)n(C)c1=O (stereo not drawn)
2,85 to 87,CCC(=C(c1ccc(I)cc1)c1ccc(OCCCCCl)cc1)c1ccccc1
3,119,CCOc1cc(C)c(NCCO)cc1[N+](=O)[O-]
4,238 to 239,Cc1cc2ncn(Cc3ccc(N)cc3)c2cc1C
5,267 to 268,O=C(Nc1c[nH]nc1C(=O)NCCc1cccnc1)c1ccccn1
6,152 to 154,CCOC(=O)Cc1csc2nc(C(=O)OC)cn12
7,86 to 87,COC(=O)C(=O)CC(=O)c1ccccn1
8,> 200,O=C(Cc1cccnc1)Nc1cccc(-c2ccnc3c(C(=O)c4cccs4)cnn23)c1
9,107 to 109,Cn1c(C(F)(F)F)ccc(-c2c(F)cc(Cl)c3oc(C(Br)Br)cc23)c1=O
10,227,CC(C)(CO)NS(=O)(=O)c1cccc(NC(=O)c2cnn3c(C(F)(F)F)cc(-c4ccc(C(F)(F)F)cc4)nc23)c1
11,200 to 205,Cc1ccc2c(c1)C=Cc1cc(C)ccc1C2c1cn(-c2ccnc(N3CCC[C@H]3C(=O)O)n2)c(=O)[nH]c1=O
12,83,CN1CCC(OC2c3cccc(Br)c3CCn3cc(-c4ccccc4)nc32)CC1 (stereo not drawn)
13,40 to 44,COC(=O)C(C(=O)OC)C(=O)C(C)Oc1ccc(Oc2ccc(C(F)(F)F)cc2)cc1 (stereo not drawn)
14,160 to 161,CC(C)(CC(=O)C(=O)Nc1ccc2c(c1)COC2=O)c1cccc(I)c1
15,58 to 62,COc1cc2cc(C(=O)Nc3cc(NC(=O)OCc4ccccc4)c4ccccc4c3CCCl)[nH]c2c(OC)c1OC
16,93,O=P(O)(O)OC(Cn1cncn1)C(c1ccc(F)cc1F)n1cncn1 (stereo not drawn)
17,99 to 101,Clc1ccc(-c2nc3n(c2Cl)CCCC3)c(Cl)c1
18,129 to 130,CCCCCCc1ccc(-n2c(-c3ccc(CC(=O)O)cc3)ccc2-c2ccc(CC(=O)O)cc2)cc1
19,281 to 283,Cc1cc(C(N)=O)c2c(c1)C(C(Cl)(Cl)Cl)OC(C(Cl)(Cl)Cl)O2 (stereo not drawn)
20,96 to 110,CNC(=O)c1cc(N(C)C)ccc1Nc1nc(Nc2cc3c(cc2OC)CCN(CC(=O)N(C)C)CC3)ncc1Cl
21,179 to 180,COc1cccc(OC)c1C=CC(=O)c1c(OC)cccc1OC
22,105 to 108,CC(C(=O)O)c1ccc(-c2ccc(F)cc2F)c(F)c1 (stereo not drawn)
23,138 to 140,CCCOc1cccc(-c2nc(=O)c3ccccc3s2)n1
24,233 to 235,COc1c(N2CC(=NO)C3(CC3)C2)c(F)cc2c(=O)c(C(=O)O)cn(C3CC3)c12

row,melting point [°C],SMILES
1,93 to 95,CC(C)N1CC(CN(C)C)N(C)c2ccccc2C1=O (stereo not drawn)
2,171 to 173,Cc1ccccc1-c1cn(C)cc(-c2cccc(Cl)c2)c1=O
3,76 to 82,CCS(=O)(=O)n1cc(C(=O)C2CSC(c3cccnc3)N2)c2ccc(OCc3ccccc3)cc21 (stereo not drawn)
4,195 to 196,O=c1nc(-c2ccccc2)c2cc([N+](=O)[O-])ccc2n1CC(F)(F)F
5,88,CCCCCCCCCCNC(=O)C1CSC(c2cccnc2)N1 (stereo not drawn)
6,178 to 180,N#CN1CCC2(CC1)CN(c1ccc(Cl)cc1)c1ccccc12
7,207 to 208,CCCn1cc(C(=O)O)c(=O)c2cc(C)sc21
8,65 to 66,CCOC(=O)c1ccccc1NC(=O)CBr
9,115 to 116,C=CCC(C)(CC=C)C(=O)O[C@H]1C[C@H](O)C=C2C=C[C@H](C)[C@H](CC[C@@H]3C[C@@H](O)CC(=O)O3)[C@H]21
10,62 to 63,CC(C)(O)c1cc(Br)ccc1N
11,187 to 188,CC1=C(C(=O)OC(C)(C)C)C(c2ccc(Br)cc2F)C(C(=O)OC(C)(C)C)=C(C)N1
12,157 to 158,CN1C(=O)CN(N=Cc2ccccc2)C(c2ccccc2)c2cc(Cl)ccc21 (stereo not drawn)
13,170 to 172,CNC(=O)c1ccccc1Nc1nc(Nc2ccc3c(c2)CCCCN3C)ncc1Cl
14,134 to 135,OCc1cnoc1-c1ccc(F)c(Br)c1
15,282 to 284,N#Cc1c(N)ncc2c1-c1ccccc1C(c1ccc(Cl)cc1Cl)C2 (stereo not drawn)
16,130,O=C1CCC(=O)N1CC(O)COc1ccccc1 (stereo not drawn)
17,227 to 229,CC1=C(c2nc(C)no2)C(c2cccc(Cl)c2Cl)C(c2nc(C)no2)=C(C)N1
18,156 to 158,OCc1cccc(Oc2nn(Cc3ccccc3)c3ccccc23)n1
19,55.5 to 58,FC(F)Oc1cn(-c2c(Cl)cc(C(F)(F)F)cc2Cl)nc1C(F)(F)F
20,203,COC(=O)c1cccc(-c2nc(C(=O)c3ccc(N)c(C(=O)OC)c3)n3ccccc23)c1
21,< 20,CCOC(=N)C1(O)CCc2ccccc21 (stereo not drawn)
22,42 to 43,CCCCCCOC(=O)c1nc2cc(Cl)ccc2o1
23,79 to 80,CCc1cc(C)cc(CC)c1C1C(=O)C2=CC(CCC(C)=NOC)CC2C1=O (stereo not drawn)
24,187,Cc1ncc(C(=O)O)nc1C

row,melting point [°C],SMILES
1,241 to 243,Cc1c(C(=O)O)oc2c(C(C)(C)C)cc(C(C)(C)C)c(O)c12
2,254 to 259,O=c1[nH]c2ccccc2c2c(C(O)CC3CCCCC3)n(-c3ccccc3)nc12 (stereo not drawn)
3,165 to 167,FC(F)(F)c1nc(-c2ccccc2)c(-c2ccccc2)c(N2CCN(c3ccccn3)CC2)n1
4,111 to 114,CCCc1nc(N)c(C(=O)OCC)[nH]1
5,159 to 161,CN1C(=S)NN2CCCC21c1ccc(Cl)cc1 (stereo not drawn)
6,86 to 88,COC(=O)c1ccc(OC2=C3N=C4CCCCC4=C3C(Cc3cccc(F)c3)C=C2)o1 (stereo not drawn)
7,108 to 109,Cc1cnnc2c1C(=O)CC(c1ccccc1Cl)C2 (stereo not drawn)
8,87 to 90,Cc1nsc(OCC(F)(F)F)c1S(=O)(=O)NC(C)(C)C
9,114 to 115,CCOC(=O)C1=C(C#N)NC(C)=C(C(=O)OCCOCc2ccccc2)C1c1cccc([N+](=O)[O-])c1 (stereo not drawn)
10,84,CCCCCCCCCCCCCCCCCCNC(=O)OC(=O)CCCCCCCCCCCCCCCCC
11,184,Cc1nc2ccc(S(=O)(=O)n3c(CCCC(=O)O)cc4nc(Cl)ccc43)cc2s1
12,190 to 192,N#Cc1cnn(-c2ccc(Cl)c(Cl)c2Cl)c1NC=O
13,174 to 177,CC(c1ccnnc1)C(O)(Cn1cncn1)c1ccc(Cl)cc1Cl (stereo not drawn)
14,87 to 93,"CC(O)(c1cccnc1)C1CCN(C[C@@]23C[C@@H](c4ccccc42)c2ccc(Cl)cc23)CC1 (single isomer, unassigned)"
15,144 to 145,Nc1cccc(CN2CCN(C(c3ccccc3)c3ccccc3)CC2)n1
16,130 to 131,COc1cc2ncnc(N3CCCc4ccccc43)c2cc1OC
17,178 to 180,Cc1cc(C2(C3CC3)CC(c3ccc(Cl)cc3)=NO2)ccc1NC(=O)c1cccc(I)c1C(=O)NC(C)C (stereo not drawn)
18,92 to 97,Cc1ccc(Cn2c(=O)c3c(N4CCN(C)CC4)cc(Cl)cc3n(Cc3ccccc3)c2=O)cc1
19,155 to 157,COC(=O)C(=O)c1ccc(OCCOc2ccc3ccccc3c2)cc1
20,94,CC1=C(c2ccccc2)C(=O)N(C(C)(C)C(=O)C2CCCCC2)CO1
21,208 to 211,Clc1cc(Nc2nccc(-c3ccc(N4CCNCC4)nc3)n2)cc(Cl)c1Cl
22,132,CC(C)CNCC(O)c1cc(C(F)(F)F)nc2c(C(F)(F)F)cccc12 (stereo not drawn)
23,118 to 120,COc1ccc(C=CC2=NNC(C)Cc3cc(OC)c(OC)cc32)c(OC)c1 (stereo not drawn)
24,206 to 208,CC(C)C1(C)NC(c2ncc(Br)cc2C(=O)O)=NC1=O (stereo not drawn)

row,melting point [°C],SMILES
1,183,NC(=O)c1nccn1C1Cc2ccccc2C1=O (stereo not drawn)
2,177 to 178,CN1CCN(c2ccccc2C=C2CCCN(c3ccc(Cl)cc3)C2=O)CC1
3,161 to 165,CCN1C(=O)C(C)(C)C(=O)N(C)c2cc(CN(CCn3ccc4occc4c3=O)Cc3cc(C)nn3C)ccc21
4,136,Brc1ccc(C2(Cn3cncn3)OCCO2)cc1
5,68 to 70,CCOC(=O)C(C)(C)Oc1ccc(C#CC(=O)c2ccc(Cl)cc2)cc1
6,188 to 189,COc1ccc(SCCCCNC(P(=O)(O)O)P(=O)(O)O)cc1
7,195 to 198,O=C1N(Cc2cnc(Cl)s2)c2ccccc2C12COc1cc3c(cc12)OCO3 (stereo not drawn)
8,292 to 293,Cc1c2c(c(-c3ccc4c(c3)OCO4)c3c4c(ccc13)OCO4)CNC2=O
9,218,CC=Cn1c(=S)sc2c(=N)n(NC(=O)c3ccco3)cnc21
10,140 to 142,CC(Oc1ncn(-c2ccccc2)n1)C(=O)O (stereo not drawn)
11,66 to 72,C=CC(OC(C)OCC)C(NC(=O)OC(C)(C)C)c1ccccc1 (stereo not drawn)
12,155 to 159,CCCCOc1c(CNC(=O)OC(C)(C)C)n(CC(C)C)c(=O)c2ccc(-c3ccccc3)cc12
13,71 to 72,C=CCOc1cc(C(=O)OCC)nc2ccccc12
14,206,NCC(=O)NCCCCNc1cccc2c1C(=O)c1ccccc1C2=O
15,160 to 162,CCOC(=O)/C=C/c1cc(-c2c(CC(=O)Nc3ccc(Cl)cc3C(F)(F)F)c(=O)oc3cc(Cl)c(C)cc23)ccc1F
16,85 to 86,O=Cc1cn(Cc2ccccc2)nc1OCc1ccccc1
17,151 to 153,CC(C)(C)OC(=O)C=C(c1ccc(C#N)cc1)n1ccnc1
18,233 to 234,CCc1nc(NC(=O)C2=C(O)c3ccc4ccccc4c3S(=O)(=O)N2C)sc1C
19,123 to 124,COC1CCC2(C)C(=CCC3C2CCC2(C)C(C(C)=O)CCC32)C1 (stereo not drawn)
20,63 to 65,CC1(CCc2ccccc2)OC(=O)CC(=O)O1
21,164 to 167,CC(=O)Nc1cccc2c1S(=O)(=O)N=C2C1=C(O)C(C(C)(C)C)N(Cc2ccc(F)cc2)C1=O (stereo not drawn)
22,125 to 127,CCOc1ccccc1C(=O)CCC(=O)O
23,125 to 126,CN1CCC(c2c[nH]c3ccc(NC(=O)c4ccccc4F)nc23)CC1
24,156 to 160,O=C(O)Cc1cccc2c(=O)cc(-c3c(F)c(F)c(F)c(F)c3F)oc12

row,SMILES,melting point [°C]
1,ClCCOc1ccc(CBr)cc1,64 to 66
2,CC1(CCCn2cc(C=O)c3ccccc32)OCCO1,52 to 55
